# Test results from patent publication US4073903A, “3-Desacetoxymethyl-3- 5'(1-methyltetrazolyl)thio!methyl-7- 1-(4-nitr oimidazolyl)acetyl!aminocephalosporanic acid” (Pierrel S.p.A., priority 1975, dated 1978).
# Read-outs that look alike come from different tables or passages of the source.
# Assays:
# Staphylococcus aureus = experiment: MIC, twofold serial broth dilution (Table I); type: cell-based; conditions: 24 h, 37° C, read-out: Minimum inhibitory concentration (MIC)
# Streptococcus mitis = experiment: MIC, twofold serial broth dilution (Table I); type: cell-based; conditions: ATCC9895, strain ATCC 9895 Ty V, Todd Hewitt Broth, 37° C, 24 hours, read-out: Minimum inhibitory concentration (MIC)
# Streptococcus bovis = experiment: MIC, twofold serial broth dilution (Table I); type: cell-based; conditions: Streptococcus equinus, ATCC15351; strain ATCC 15351; Todd Hewitt Broth; 37° C, 24 hours; read-out: Minimum inhibitory concentration (MIC)
# Diplococcus pneumoniae = experiment: MIC, twofold serial broth dilution (Table I); type: cell-based; conditions: Streptococcus pneumoniae; strain Ty XXVII-LRP 53; Todd Hewitt Broth; 37° C, 24 hours; read-out: Minimum inhibitory concentration (MIC)
# Source text: (§1) In Table I the minimum inhibitory concentrations (MIC) of P-75123 against a variety of Gram-positive and Gram-negative bacteria are listed.
# Shigella flexneri = experiment: MIC, twofold serial broth dilution (Table I); type: cell-based; conditions: strain ISM-LRP 40, Tryptose Phosphate Broth, 37° C, 24 hours, read-out: Minimum inhibitory concentration (MIC)
# Source text: as §1
# Shigella sonnei = experiment: MIC, twofold serial broth dilution (Table I); type: cell-based; conditions: strain ISM-LRP 5, Tryptose Phosphate Broth, 37° C, 24 hours, read-out: Minimum inhibitory concentration (MIC)
# Source text: as §1
# Escherichia coli [1] = experiment: MIC, twofold serial broth dilution (Table I); type: cell-based; conditions: ATCC19138, strain ATCC 19138 0 group 6, Tryptose Phosphate Broth, 37° C, 24 hours, read-out: Minimum inhibitory concentration (MIC)
# Shigella dysenteriae = experiment: MIC, twofold serial broth dilution (Table I); type: cell-based; conditions: 24 h, read-out: Minimum inhibitory concentration (MIC)
# Enterobacter cloacae = experiment: MIC, twofold serial broth dilution (Table I); type: cell-based; conditions: strain ISM 71/32, Tryptose Phosphate Broth, 37° C, 24 hours, read-out: Minimum inhibitory concentration (MIC)
# [2] = tested on: Enterobacter liquefaciens; experiment: MIC, twofold serial broth dilution (Table I); type: cell-based; conditions: strain ISM 65/33, Tryptose Phosphate Broth, 37° C, 24 hours, read-out: Minimum inhibitory concentration (MIC)
# Salmonella typhi = experiment: MIC, twofold serial broth dilution (Table I); type: cell-based; conditions: Salmonella enterica, 24 h, read-out: Minimum inhibitory concentration (MIC)
# Arizona sp. = experiment: MIC, twofold serial broth dilution (Table I); type: cell-based; conditions: strain ISM 67/9; Tryptose Phosphate Broth; 37° C, 24 hours; read-out: Minimum inhibitory concentration (MIC)
# Citrobacter freundii = experiment: MIC, twofold serial broth dilution (Table I); type: cell-based
# Klebsiella pneumoniae [3] = experiment: MIC, twofold serial broth dilution (Table I); type: cell-based; conditions: strain ISM 68/67' 370 V', Tryptose Phosphate Broth, 37° C, 24 hours, read-out: Minimum inhibitory concentration (MIC)
# Proteus morganii = experiment: MIC, twofold serial broth dilution (Table I); type: cell-based; conditions: Morganella morganii; strain ISM-LRP 18; Mueller Hinton Broth; 37° C, 24 hours; read-out: Minimum inhibitory concentration (MIC)
# Proteus rettgeri = experiment: MIC, twofold serial broth dilution (Table I); type: cell-based; conditions: Providencia rettgeri; strain ISM-LRP 21; Mueller Hinton Broth; 37° C, 24 hours; read-out: Minimum inhibitory concentration (MIC)
# Proteus mirabilis = experiment: MIC, twofold serial broth dilution (Table I); type: cell-based; conditions: 37° C, 24 hours, read-out: Minimum inhibitory concentration (MIC)
# Brucella abortus = experiment: microbe, parasite or virus in culture; type: cell-based; conditions: 24 h, read-out: Minimum inhibitory concentration (MIC)
# Solubility = type: physicochemical; conditions: crystals
# [4] = tested on: wide spectrum of microorganisms both Gram-positive and Gram-negative; experiment: In vitro antimicrobial activity (overall statement); type: cell-based
# [5] = tested on: systemically infected mice; experiment: In vivo activity in systemically infected mice (overall statement); set-up: species or system Charles River CD 1 female mice; conditions: treatment of systemically infected mice
# Klebsiella pneumoniae [6] = experiment: MIC against clinical isolates, broth dilution test (Table II); conditions: for MIC: Klebsiella pneumoniae, 24 h
# Escherichia coli [7] = experiment: MIC against clinical isolates, broth dilution test (Table III); conditions: for MIC: Escherichia coli, 24 h
# Klebsiella pneumoniae [8] = conditions: in Mus musculus, 168 h, read-out: ED50 per treatment
# Salmonella wien = experiment: MIC against Ampicillin-resistant clinical isolates, broth dilution test (Table IV); conditions: Salmonella enterica, 24 h
# Salmonella heidelberg = experiment: as above; conditions: Salmonella enterica, 24 h, read-out: Minimun inhibitory concentration (MIC)
# [9] = read-out: Minimum inhibitory concentration (MIC)
smiles,measurement,setting,value
"Cn1nnnc1SCC1=C(C(=O)O)N2C(=O)C(NC(=O)Cn3cnc([N+](=O)[O-])c3)C2SC1 (stereo not drawn) [P-75123, 7-1-(1H-4-nitroimidazolyl)acetyl!amino-3-5-(1H-1-methyltetrazolyl)thio!methyl-3-cephem-4-carboxylic acid]",MIC,"Staphylococcus aureus; strain ATTC 653P, Tryptose Phosphate Broth",0.195 µg/mL
same,MIC,"Staphylococcus aureus; strain ISM 72/10, Tryptose Phosphate Broth",0.78 µg/mL
same,MIC,Streptococcus mitis,0.195 µg/mL
same,MIC,Streptococcus bovis,0.049 µg/mL
same,MIC,Diplococcus pneumoniae,0.097 µg/mL
same,MIC,Shigella flexneri,0.78 µg/mL
same,MIC,Shigella sonnei,1.56 µg/mL
same,MIC,Escherichia coli [1],0.78 µg/mL
same,MIC,Shigella dysenteriae,0.78 µg/mL
same,MIC,Enterobacter cloacae,> 100 µg/mL
same,MIC,[2],100 µg/mL
same,MIC,Salmonella typhi,0.78 µg/mL
same,MIC,Arizona sp.,0.78 µg/mL
same,MIC,"Citrobacter freundii; 24 h, read-out: Minimum inhibitory concentration (MIC), strain ISM 65/74, Tryptose Phosphate Broth, 37° C",1.56 µg/mL
same,MIC,"Citrobacter freundii; strain ISM 69/30, Tryptose Phosphate Broth, 37° C, 24 hours, read-out: Minimum inhibitory concentration (MIC)",0.78 µg/mL
same,MIC,Klebsiella pneumoniae [3],0.78 µg/mL
same,MIC,Proteus morganii,50 µg/mL
same,MIC,Proteus rettgeri,25 µg/mL
same,MIC,"Proteus mirabilis; ATCC10005, strain ATCC 10005, Mueller Hinton Broth",3.12 µg/mL
same,MIC,"Proteus mirabilis; strain ISM 66/53, Mueller Hinton Broth",3.12 µg/mL
same,MIC,Brucella abortus,25 µg/mL
same,Solubility in dimethylsulfoxide,Solubility; dimethylsulfoxide,soluble in dimethylsulfoxide
same,Solubility in water,Solubility; water,practically insoluble in water
same,"""in vitro"" antimicrobial activity",[4],high antimicrobial activity
same,"activity ""in vivo""",[5],very good activity
same,MIC,Klebsiella pneumoniae [6]; [9],1.56 µg/mL
same,MIC,"Klebsiella pneumoniae [6]; read-out: Minimum inhibitory concentration (MIC), clinical isolate LRP 129",0.39 µg/mL
same,MIC,"Klebsiella pneumoniae [6]; read-out: Minimum inhibitory concentration (MIC), clinical isolate LRP 130",6.25 µg/mL
same,MIC,"Klebsiella pneumoniae [6]; read-out: Minimum inhibitory concentration (MIC), clinical isolate LRP 131",3.12 µg/mL
same,MIC,"Klebsiella pneumoniae [6]; read-out: Minimum inhibitory concentration (MIC), clinical isolate LRP 132",0.39 µg/mL
same,MIC,"Klebsiella pneumoniae [6]; read-out: Minimum inhibitory concentration (MIC), clinical isolate LRP 133",0.78 µg/mL
same,MIC,"Klebsiella pneumoniae [6]; read-out: Minimum inhibitory concentration (MIC), clinical isolate LRP 135",3.12 µg/mL
same,MIC,"Klebsiella pneumoniae [6]; read-out: Minimum inhibitory concentration (MIC), clinical isolate LRP 136",3.12 µg/mL
same,MIC,"Klebsiella pneumoniae [6]; read-out: Minimum inhibitory concentration (MIC), clinical isolate LRP 137",0.78 µg/mL
same,Minimum inhibitory concentration (MIC),Klebsiella pneumoniae [6]; clinical isolate LRP 134,1.56 µg/mL
same,MIC,Escherichia coli [7]; [9],1.56 µg/mL
same,MIC,"Escherichia coli [7]; read-out: Minimum inhibitory concentration (MIC), clinical isolate LRP 87",3.12 µg/mL
same,MIC,"Escherichia coli [7]; read-out: Minimum inhibitory concentration (MIC), clinical isolate LRP 110",0.78 µg/mL
same,MIC,"Escherichia coli [7]; read-out: Minimum inhibitory concentration (MIC), clinical isolate LRP 143",0.78 µg/mL
same,MIC,"Escherichia coli [7]; read-out: Minimum inhibitory concentration (MIC), clinical isolate LRP 152",50 µg/mL
same,MIC,"Escherichia coli [7]; read-out: Minimum inhibitory concentration (MIC), clinical isolate LRP 159",0.78 µg/mL
same,Minimum inhibitory concentration (MIC),Escherichia coli [7]; clinical isolate LRP 96,1.56 µg/mL
same,Minimum inhibitory concentration (MIC),Escherichia coli [7]; clinical isolate LRP 150,1.56 µg/mL
same,Minimum inhibitory concentration (MIC),Escherichia coli [7]; clinical isolate LRP 151,1.56 µg/mL
same,Minimum inhibitory concentration (MIC),Escherichia coli [7]; clinical isolate LRP 154,1.56 µg/mL
same,Minimum inhibitory concentration (MIC),Escherichia coli [7]; clinical isolate LRP 155,1.56 µg/mL
same,Minimum inhibitory concentration (MIC),Escherichia coli [7]; clinical isolate LRP 156,1.56 µg/mL
same,Minimum inhibitory concentration (MIC),Escherichia coli [7]; clinical isolate LRP 158,1.56 µg/mL
same,Minimum inhibitory concentration (MIC),Escherichia coli [7]; clinical isolate LRP 163,1.56 µg/mL
same,ED50,Klebsiella pneumoniae [8],49 mg/kg
same,MIC,"Salmonella wien; read-out: Minimun inhibitory concentration (MIC), Ampicillin-resistant clinical isolate LRP 138",3.12 µg/mL
same,MIC,"Salmonella wien; read-out: Minimun inhibitory concentration (MIC), Ampicillin-resistant clinical isolate LRP 140",6.25 µg/mL
same,MIC,"Salmonella wien; read-out: Minimun inhibitory concentration (MIC), Ampicillin-resistant clinical isolate LRP 141",6.25 µg/mL
same,MIC,Salmonella heidelberg,1.56 µg/mL
